Reference: the supplement of paper PMC11061612

What was measured:
MK-2206 = compound: NC1(c2ccc(-c3nc4ccn5c(=O)[nH]nc5c4cc3-c3ccccc3)cc2)CCC1 [MK-2206]; conditions: max 10 µM
In short: (§1)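 Viability was measured with CellTiter-Glo 2.0 luminescence after 72 hours of dosing at a final DMSO of typically 0.2%, and scaled between blank-well and DMSO-well means. Beforehand, cancer cell lines sat 24 hours at 37°C and 5% CO2 in 1536-well plates in 7.5 μl DMEM/F12 or RPMI with 10% FBS. A non-linear mixed effects model fitted two-parameter logistic curves to the dose responses. The single-agent IC50 comes from these fits.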

AZD2811 = compound: CCN(CCO)CCCOc1ccc2c(Nc3cc(CC(=O)Nc4cccc(F)c4)[nH]n3)ncnc2c1 [AZD2811]; conditions: max 1 µM
In short: as §1

AZD5991 = compound: Cc1c2c(nn1C)CSCc1cc(n(C)n1)CSc1cc(c3ccccc3c1)OCCCc1c(C(=O)O)n(C)c3c-2c(Cl)ccc13 [AZD5991]; conditions: max 1 µM
In short: as §1

Gefitinib = compound: COc1cc2ncnc(Nc3ccc(F)c(Cl)c3)c2cc1OCCCN1CCOCC1 [Gefitinib]; conditions: max 10 µM
In short: as §1

AZD5153 = compound: COc1nnc2ccc(N3CCC(c4ccc(OCCN5CCN(C)C(=O)[C@H]5C)cc4)CC3)nn12 [AZD5153]; conditions: max 1 µM
In short: as §1

SN-38 = compound: CCc1c2c(nc3ccc(O)cc13)-c1cc3c(c(=O)n1C2)COC(=O)[C@]3(O)CC [SN-38]; conditions: max 0.3 µM
In short: as §1

Lapatinib = compound: CS(=O)(=O)CCNCc1ccc(-c2ccc3ncnc(Nc4ccc(OCc5cccc(F)c5)c(Cl)c4)c3c2)o1 [Lapatinib]; conditions: max 10 µM
In short: as §1

Prexasertib = compound: COc1cccc(OCCCN)c1-c1cc(Nc2cnc(C#N)cn2)n[nH]1 [Prexasertib]; conditions: max 1 µM
In short: as §1

Doxorubicin = compound: COc1cccc2c1C(=O)c1c(O)c3c(c(O)c1C2=O)C[C@@](O)(C(=O)CO)C[C@@H]3O[C@H]1C[C@H](N)[C@H](O)[C@H](C)O1 [Doxorubicin]; conditions: max 1 µM
In short: as §1

AZD7648 = compound: Cc1cc2ncnn2cc1Nc1ncc2c(n1)n(C1CCOCC1)c(=O)n2C [AZD7648]; conditions: max 10 µM
In short: as §1

Venetoclax = compound: CC1(C)CCC(CN2CCN(c3ccc(C(=O)NS(=O)(=O)c4ccc(NCC5CCOCC5)c([N+](=O)[O-])c4)c(Oc4cnc5[nH]ccc5c4)c3)CC2)=C(c2ccc(Cl)cc2)C1 [Venetoclax]; conditions: max 1 µM
In short: as §1

Dasatinib = compound: CC1=C(C(=CC=C1)Cl)NC(=O)C2=CN=C(S2)NC3=CC(=NC(=N3)C)N4CCN(CC4)CCO [Dasatinib]; conditions: max 2 µM
In short: as §1

Crizotinib = compound: C[C@@H](Oc1cc(-c2cnn(C3CCNCC3)c2)cnc1N)c1c(Cl)ccc(F)c1Cl [Crizotinib]; conditions: max 10 µM
In short: as §1

Capivasertib = compound: C1CN(CCC1(C(=O)N[C@@H](CCO)C2=CC=C(C=C2)Cl)N)C3=NC=NC4=C3C=CN4 [Capivasertib]; conditions: max 10 µM
In short: as §1

AZD6738 = compound: C[C@@H]1COCCN1C2=NC(=NC(=C2)C3(CC3)[S@](=N)(=O)C)C4=C5C=CNC5=NC=C4 [AZD6738]; conditions: max 10 µM
In short: as §1

Taselisib = compound: Cc1nc(-c2cn3c(n2)-c2ccc(-c4cnn(C(C)(C)C(N)=O)c4)cc2OCC3)n(C(C)C)n1 [Taselisib]; conditions: max 10 µM
In short: as §1

AZD4320 = compound: CN(CC[C@H](CSC1=CC=CC=C1)NC2=C(C=C(C=C2)S(=O)(=O)NC(=O)C3=CC=C(C=C3)N4CCC(CC4)[C@H](C5=CC=CC=C5C6=CC=C(C=C6)Cl)O)S(=O)(=O)C(F)(F)F)CCO [AZD4320]; conditions: max 1 µM
In short: as §1

AZD0156 = compound: CN(C)CCCOc1ccc(-c2ccc3ncc4c(c3c2)n(C2CCOCC2)c(=O)n4C)cn1 [AZD0156]; conditions: max 3 µM
In short: as §1

Savolitinib = compound: C[C@@H](c1ccc2nccn2c1)n1nnc2ncc(-c3cnn(C)c3)nc21 [Savolitinib]; conditions: max 1 µM
In short: as §1

Selumetinib = compound: Cn1cnc2c(F)c(Nc3ccc(Br)cc3Cl)c(C(=O)NOCCO)cc21 [Selumetinib]; conditions: max 10 µM
In short: as §1

Alisertib = compound: COc1cc(Nc2ncc3c(n2)-c2ccc(Cl)cc2C(c2c(F)cccc2OC)=NC3)ccc1C(=O)O [Alisertib]; conditions: max 10 µM
In short: as §1

SG3199 = compound: CC1=CN2[C@@H](C1)C=NC3=CC(=C(C=C3C2=O)OC)OCCCCCOC4=C(C=C5C(=C4)N=C[C@@H]6CC(=CN6C5=O)C)OC [SG3199]; conditions: max 0.001 µM
In short: as §1

AZD1390 = compound: CC(C)n1c(=O)n(C)c2cnc3cc(F)c(-c4ccc(OCCCN5CCCCC5)nc4)cc3c21 [AZD1390]; conditions: max 0.3 µM
In short: as §1

Trametinib = compound: CC(=O)Nc1cccc(-n2c(=O)n(C3CC3)c(=O)c3c(Nc4ccc(I)cc4F)n(C)c(=O)c(C)c32)c1 [Trametinib]; conditions: max 1 µM
In short: as §1

Palbociclib = compound: CC(=O)c1c(C)c2cnc(Nc3ccc(N4CCNCC4)cn3)nc2n(C2CCCC2)c1=O [Palbociclib]; conditions: max 10 µM
In short: as §1

AZD8186 = compound: C[C@@H](Nc1cc(F)cc(F)c1)c1cc(C(=O)N(C)C)cc2c(=O)cc(N3CCOCC3)oc12 [AZD8186]
In short: as §1

AZD1775 = compound: C=CCn1c(=O)c2cnc(Nc3ccc(N4CCN(C)CC4)cc3)nc2n1-c1cccc(C(C)(C)O)n1 [AZD1775]; conditions: max 3 µM
In short: as §1

Olaparib = compound: O=C(c1cc(Cc2n[nH]c(=O)c3ccccc23)ccc1F)N1CCN(C(=O)C2CC2)CC1 [Olaparib]; conditions: max 10 µM
In short: as §1

[1] = compound: O=C(Nc1ccc2[nH]nc(-c3ccncc3)c2c1)[C@@H]1CCN(CC(=O)N2CCN(c3ccc(-c4ncccn4)cc3)CC2)C1; conditions: max 5 µM
In short: as §1

SRA737 = compound: N#Cc1cnc(Nc2cc(NC[C@H]3CNCCO3)c(C(F)(F)F)cn2)cn1 [SRA737]; conditions: max 10 µM
In short: as §1

Gemcitabine = compound: Nc1ccn([C@@H]2O[C@H](CO)[C@@H](O)C2(F)F)c(=O)n1 [Gemcitabine]; conditions: max 0.3 µM
In short: as §1

5-Fluorouracil = compound: O=c1[nH]cc(F)c(=O)[nH]1 [5-Fluorouracil]; conditions: max 20 µM
In short: as §1

Paclitaxel = compound: CC(=O)O[C@H]1C(=O)[C@@]2(C)[C@H]([C@H](OC(=O)c3ccccc3)[C@]3(O)C[C@H](OC(=O)[C@H](O)[C@@H](NC(=O)c4ccccc4)c4ccccc4)C(C)=C1C3(C)C)[C@]1(OC(C)=O)CO[C@@H]1C[C@@H]2O [Paclitaxel]; conditions: max 3 µM
In short: as §1

Etoposide = compound: COc1cc([C@@H]2c3cc4c(cc3[C@@H](O[C@@H]3O[C@@H]5CO[C@@H](C)O[C@H]5[C@H](O)[C@H]3O)[C@H]3COC(=O)[C@H]23)OCO4)cc(OC)c1O [Etoposide]; conditions: max 10 µM
In short: as §1

AZD5363 = compound: C1CN(CCC1(C(=O)N[C@@H](CCO)C2=CC=C(C=C2)Cl)N)C3=NC=NC4=C3C=CN4 [AZD5363]; conditions: max 10 µM
In short: as §1

Carboplatin = compound: C1CC(C1)(C(=O)[O-])C(=O)[O-].N.N.[Pt+2] [Carboplatin]; conditions: max 10 µM
In short: as §1

Cell Line	IC50, cell viability 72 h (MK-2206) [µM]	IC50, cell viability 72 h (AZD2811) [µM]	IC50, cell viability 72 h (AZD5991) [µM]	IC50, cell viability 72 h (Gefitinib) [µM]	IC50, cell viability 72 h (AZD5153) [µM]	IC50, cell viability 72 h (SN-38) [µM]	IC50, cell viability 72 h (Lapatinib) [µM]	IC50, cell viability 72 h (Prexasertib) [µM]	IC50, cell viability 72 h (Doxorubicin) [µM]	IC50, cell viability 72 h (AZD7648) [µM]	IC50, cell viability 72 h (Venetoclax) [µM]	IC50, cell viability 72 h (Dasatinib) [µM]	IC50, cell viability 72 h (Crizotinib) [µM]	IC50, cell viability 72 h (Capivasertib) [µM]	IC50, cell viability 72 h (AZD6738) [µM]	IC50, cell viability 72 h (Taselisib) [µM]	IC50, cell viability 72 h (AZD4320) [µM]	IC50, cell viability 72 h (AZD0156) [µM]	IC50, cell viability 72 h (Savolitinib) [µM]	IC50, cell viability 72 h (Selumetinib) [µM]	IC50, cell viability 72 h (Alisertib) [µM]	IC50, cell viability 72 h (SG3199) [µM]	IC50, cell viability 72 h (AZD1390) [µM]	IC50, cell viability 72 h (Trametinib) [µM]	IC50, cell viability 72 h (Palbociclib) [µM]	IC50, cell viability 72 h (AZD8186; max 3 µM) [µM]	IC50, cell viability 72 h (AZD1775) [µM]	IC50, cell viability 72 h (Olaparib) [µM]	IC50, cell viability 72 h [1] [µM]	IC50, cell viability 72 h (SRA737) [µM]	IC50, cell viability 72 h (Gemcitabine) [µM]	IC50, cell viability 72 h (5-Fluorouracil) [µM]	IC50, cell viability 72 h (Paclitaxel) [µM]	IC50, cell viability 72 h (Etoposide) [µM]	IC50, cell viability 72 h (AZD5363) [µM]	IC50, cell viability 72 h (AZD8186; max 10 µM) [µM]	IC50, cell viability 72 h (Carboplatin) [µM]
BFTC-909 (Kidney Carcinoma)	> 10	> 1	> 1	> 10	0.909	0.0387	> 10	0.0247	0.616	> 10	> 1	> 2	> 10	6.1	3.46	3.93	> 1	> 3	> 1	> 10	7.72	> 0.001	> 0.3	> 1	> 10	> 3	0.579	> 10									
CAL-72 (Osteosarcoma)	> 10	> 1	> 1	> 10	> 1	0.0423	> 10	0.0169	> 1	> 10	> 1	> 2	> 10		2.87	> 10	> 1	> 3	> 1	> 10	5.04	> 0.001	> 0.3	> 1	> 10		0.587	> 10	> 5	> 10	0.128	> 20	0.0712	6.02	> 10	> 10	> 10
ESS-1 (Other Solid Carcinomas)	> 10	0.533	> 1	> 10	0.319	0.00256	> 10	0.00452	0.0653	> 10	> 1	0.125	4.82		1.77	1.06	> 1	> 3	> 1	> 10	3.89	> 0.001	> 0.3	0.989	> 10		0.151	> 10	2.98	0.93	0.0306	> 20	0.00506	0.5	5.5	4.5	> 10
